In patent US8937062B2, “Compositions and methods for treating, reducing, ameliorating, or preventing infections caused by antibacterial drug-resistant bacteria” (Bausch & Lomb Incorporated, priority 2007, dated 2015):
In brackets after ≈: the same amount, converted by molar mass.

What was measured:
[1] = test system: Methicillin-Resistant S. aureus Isolates; experiment: In vitro anti-bacterial activity, fourth test, Table 5; format: cell-based, Staphylococcus aureus
Protocol: In a fourth test, the anti-bacterial activity of the compound having Formula IV was tested against some methicillin-resistant S. aureus bacteria strains and compared to the anti-bacterial activity of three commercially available antibiotics: nadifloxacin (“NDFX”), ofloxacin (“OFLX”), and sparfloxacin (“SPFX”).

[2] = test system: S. aureus Clinical Isolates; experiment: In vitro activity against clinical isolates, sixth test, Table 7; format: cell-based; settings: 49 isolates
[3] = test system: penicillin-resistant S. aureus; experiment: MIC90, Japanese Society of Chemotherapy guidelines (1993), Table 3; format: cell-based
Protocol: (§1) In a second test, compounds having Formulae IV and V, their racemic mixture, and OFLX were tested in vitro against S. aureus strains that are resistant to methicillin or penicillin. The test was conducted according to the guidelines of the Japanese Society of Chemotherapy (1993).

[4] = test system: methicillin-resistant S. aureus; experiment: as above; format: cell-based
Protocol: as §1

[5] = test system: OFLX-resistant Enterobacteriaceae; experiment: MIC90, agar plate dilution method (NCCLS), Table 2; format: cell-based; settings: OFLX-resistant Enterobacteriaceae, 10 isolates
Protocol: (§2) The MIC90 values for this test were determined by the agar plate dilution method according to the National Committee for Clinical Laboratory Standards (“NCCLS”).

[6] = test system: APC-resistant Haemophilus influenza.; experiment: MIC90, agar plate dilution method (NCCLS), Table 2; format: cell-based; settings: APC-resistant Haemophilus influenza., 10 isolates
Protocol: as §2

[7] = test system: GM-resistant P. aeruginosa; experiment: MIC90, agar plate dilution method (NCCLS), Table 2; format: cell-based; settings: 10 isolates
Protocol: as §2

GM-resistant S. aureus = experiment: MIC90, agar plate dilution method (NCCLS), Table 2; format: cell-based; settings: 10 isolates
Protocol: as §2

[8] = test system: PCG-resistant S. pneumoniae; experiment: MIC90, agar plate dilution method (NCCLS), Table 2; format: cell-based; settings: 10 isolates
Protocol: as §2

OFLX-resistant S. aureus = experiment: MIC90, agar plate dilution method (NCCLS), Table 2; format: cell-based; settings: 10 isolates
Protocol: as §2

[9] = test system: S. pneumoniae, levofloxacin-resistant; experiment: MIC90, broth microdilution (CLSI M7-A7), Table 4; format: cell-based; settings: 25 isolates
Protocol: (§3) The MIC90 values were determined according to the broth microdilution method outlined in the Clinical and Laboratory Standards Institute Approved Standard M7-A7 (2006).

[10] = test system: S. pneumoniae, penicillin-intermediately resistant; experiment: MIC90, broth microdilution (CLSI M7-A7), Table 4; format: cell-based; settings: 26 isolates
Protocol: as §3

[11] = test system: S. pneumoniae, penicillin-resistant; experiment: MIC90, broth microdilution (CLSI M7-A7), Table 4; format: cell-based; settings: 26 isolates
Protocol: as §3

[12] = test system: S. aureus, vancomycin-resistant; experiment: MIC90, broth microdilution (CLSI M7-A7), Table 4; format: cell-based; settings: 3 isolates
Protocol: as §3

[13] = test system: S. epidermidis, methicillin-resistant; experiment: MIC90, broth microdilution (CLSI M7-A7), Table 4; format: cell-based; settings: 64 isolates
Protocol: as §3

[14] = test system: E. cloacae, extended-spectrum β-lactamase positive; experiment: MIC90, broth microdilution (CLSI M7-A7), Table 4; format: cell-based; settings: 15 isolates
Protocol: as §3

[15] = test system: H. influenzae, β-lactamase positive; experiment: MIC90, broth microdilution (CLSI M7-A7), Table 4; format: cell-based; settings: 53 isolates
Protocol: as §3

[16] = test system: H. influenzae, β-lactamase positive, ampicillin-resistant; experiment: MIC90, broth microdilution (CLSI M7-A7), Table 4; format: cell-based; settings: 25 isolates
Protocol: as §3

[17] = test system: S. aureus, vancomycin-intermediately resistant; experiment: MIC90, broth microdilution (CLSI M7-A7), Table 4; format: cell-based; settings: 23 isolates
Protocol: as §3

[18] = test system: S. aureus, methicillin-resistant and ciprofloxacin-sensitive; experiment: MIC90, broth microdilution (CLSI M7-A7), Table 4; format: cell-based; settings: 25 isolates
Protocol: as §3

[19] = test system: S. aureus, methicillin- and ciprofloxacin-resistant; experiment: MIC90, broth microdilution (CLSI M7-A7), Table 4; format: cell-based; settings: 24 isolates
Protocol: as §3

[20] = test system: Gentamicin-resistant Staphylococcus aureus; experiment: In vitro anti-bacterial activity, resistant clinical isolates, fifth test, Table 6; format: cell-based
From the text: (§4) As disclosed above, most of these bacteria strains are also relevant to infections of the ear and upper respiratory tract.

[21] = test system: Penicillin-resistant Streptococcus pneumoniae; experiment: as above; format: cell-based
From the text: as §4

[22] = test system: Gentamicin-resistant Pseudomonas aeruginosa; experiment: as above; format: cell-based
From the text: as §4

[23] = test system: Ofloxacin-resistant Staphylococcus aureus; experiment: as above; format: cell-based
From the text: as §4

[24] = test system: S. pneumoniae Clinical Isolates; experiment: In vitro activity against clinical isolates, sixth test, Table 7; format: cell-based; settings: 78 isolates
[25] = test system: Ofloxacin-resistant Enterobacteriaceae; experiment: organism not typed; format: cell-based; settings: Ofloxacin-resistant Enterobacteriaceae, clinical isolates, fifth test
From the text: as §4

## N[C@@H]1CCCCN(c2c(F)cc3c(=O)c(C(=O)O)cn(C4CC4)c3c2Cl)C1 [Compound IV]
[1]; Staphylococcus aureus (ATCC 33591)
  MIC90: 0.012 µg/mL (≈ 0.0305 µM)
[1]; Staphylococcus aureus (ATCC 33592)
  MIC90: 0.05 µg/mL (≈ 0.127 µM)
[1]; Staphylococcus aureus (ATCC 33593)
  MIC90: 0.012 µg/mL (≈ 0.0305 µM)
[1]; Staphylococcus aureus (No. 395)
  MIC90: 0.006 µg/mL (≈ 0.0152 µM)
[1]; Staphylococcus aureus (No. 415)
  MIC90: 0.05 µg/mL (≈ 0.127 µM)
[1]; Staphylococcus aureus (No. 419)
  MIC90: 0.1 µg/mL (≈ 0.254 µM)
[1]; Staphylococcus aureus (No. 420)
  MIC90: 0.1 µg/mL (≈ 0.254 µM)
[1]; Staphylococcus aureus (No. 421)
  MIC90: 0.2 µg/mL (≈ 0.508 µM)
[2]
  MIC90 Range: 0.015 to 2 µg/mL
  MIC90 Value: 0.25 µg/mL (≈ 0.635 µM)
[3]; S. aureus (ATCC 11632)
  MIC90: 0.025 µg/mL (≈ 0.0635 µM)
[3]; S. aureus (ATCC 13301)
  MIC90: 0.012 µg/mL (≈ 0.0305 µM)
[4]; S. aureus (ATCC 33591)
  MIC90: 0.025 µg/mL (≈ 0.0635 µM)
[4]; S. aureus (ATCC 33592)
  MIC90: 0.012 µg/mL (≈ 0.0305 µM)
[4]; S. aureus (ATCC 33593)
  MIC90: 0.025 µg/mL (≈ 0.0635 µM)
[4]; S. aureus (No. 395)
  MIC90: 0.025 µg/mL (≈ 0.0635 µM)
[4]; S. aureus (No. 415)
  MIC90: 0.012 µg/mL (≈ 0.0305 µM)
[4]; S. aureus (No. 419)
  MIC90: 0.025 µg/mL (≈ 0.0635 µM)
[4]; S. aureus (No. 420)
  MIC90: 0.012 µg/mL (≈ 0.0305 µM)
[4]; S. aureus (No. 421)
  MIC90: 0.025 µg/mL (≈ 0.0635 µM)
[5]
  MIC90 Geometric Mean: 11.3 µg/mL (≈ 28.7 µM)
  MIC90 Range: 4 to 32 µg/mL
  MIC90 Value: 16 µg/mL (≈ 40.6 µM)
[6]
  MIC90 Geometric Mean: ≦0.06 μg/ml
  MIC90 Range: ≦0.06 μg/ml
  MIC90 Value: ≦0.06 μg/ml
[7]
  MIC90 Geometric Mean: 5.28 µg/mL (≈ 13.4 µM)
  MIC90 Range: 0.5 to 32 µg/mL
  MIC90 Value: 32 µg/mL (≈ 81.3 µM)
GM-resistant S. aureus
  MIC90 Geometric Mean: 0.65 µg/mL (≈ 1.65 µM)
  MIC90 Range: ≦0.006-8 μg/ml
  MIC90 Value: 4 µg/mL (≈ 10.2 µM)
[8]
  MIC90 Geometric Mean: 0.10 µg/mL (≈ 0.254 µM)
  MIC90 Range: ≦0.06-0.13 μg/ml
  MIC90 Value: 0.13 µg/mL (≈ 0.33 µM)
OFLX-resistant S. aureus
  MIC90 Geometric Mean: 2.14 µg/mL (≈ 5.43 µM)
  MIC90 Range: 0.5 to 8 µg/mL
  MIC90 Value: 8 µg/mL (≈ 20.3 µM)
[9]
  MIC90 Geometric Mean: 1.028 µg/mL (≈ 2.61 µM)
  MIC90 Range: 0.5 to 8 µg/mL
  MIC90 Value: 2 µg/mL (≈ 5.08 µM)
[10]
  MIC90 Geometric Mean: 0.120 µg/mL (≈ 0.305 µM)
  MIC90 Range: 0.06 to 2 µg/mL
  MIC90 Value: 0.12 µg/mL (≈ 0.305 µM)
[11]
  MIC90 Geometric Mean: 0.108 µg/mL (≈ 0.274 µM)
  MIC90 Range: 0.06 to 0.12 µg/mL
  MIC90 Value: 0.12 µg/mL (≈ 0.305 µM)
[12]
  MIC90 Geometric Mean: 1.587 µg/mL (≈ 4.03 µM)
  MIC90 Range: 1 to 4 µg/mL
[13]
  MIC90 Geometric Mean: 0.397 µg/mL (≈ 1.01 µM)
  MIC90 Value: 8 µg/mL (≈ 20.3 µM)
[14]
  MIC90 Geometric Mean: 4.595 µg/mL (≈ 11.7 µM)
  MIC90 Value: >8 µg/mL
[15]
  MIC90 Geometric Mean: 0.027 µg/mL (≈ 0.0686 µM)
  MIC90 Range: 0.015 to 0.06 µg/mL
  MIC90 Value: 0.03 µg/mL (≈ 0.0762 µM)
[16]
  MIC90 Geometric Mean: 0.044 µg/mL (≈ 0.112 µM)
  MIC90 Range: 0.015 to 0.25 µg/mL
  MIC90 Value: 0.12 µg/mL (≈ 0.305 µM)
[17]
  MIC90 Geometric Mean: 0.652 µg/mL (≈ 1.66 µM)
  MIC90 Range: 0.03 to 2 µg/mL
  MIC90 Value: 2 µg/mL (≈ 5.08 µM)
[18]
  MIC90 Geometric Mean: 0.033 µg/mL (≈ 0.0838 µM)
  MIC90 Range: 0.015 to 1 µg/mL
  MIC90 Value: 0.06 µg/mL (≈ 0.152 µM)
[19]
  MIC90 Geometric Mean: 1.542 µg/mL (≈ 3.92 µM)
  MIC90 Range: 0.5 to 8 µg/mL
  MIC90 Value: 8 µg/mL (≈ 20.3 µM)
[20]
  MIC90: 4 µg/mL (≈ 10.2 µM)
[21]
  MIC90: 0.13 µg/mL (≈ 0.33 µM)
[22]
  MIC90: 32 µg/mL (≈ 81.3 µM)
[23]
  MIC90: 8 µg/mL (≈ 20.3 µM)
[24]
  MIC90 Range: 0.03 to 0.12 µg/mL
  MIC90 Value: 0.12 µg/mL (≈ 0.305 µM)
[25]
  MIC90: 16 µg/mL (≈ 40.6 µM)
